Measured values published in patent publication US9702865B2, “System and method for high-content oncology assay” (RIGEL PHARMACEUTICALS, INC., priority 2002, dated 2017).

Columns and labels:
Type in all cases: cell-based
A549 cells [1] = assay: in vitro; settings: FIG. 10
From the text: (§1) FIG. 9A illustrates one embodiment of processing steps associated with the operation of the cell death analysis module 62. The first processing step of FIG. 9A is to obtain luminescence intensity (LI) values corresponding to defined nuclei of cells captured by the image capture device (block 130), as described above. Based upon these LI values, the minimum nuclear luminescence intensity values (“MNLI”) are obtained (block 132). The MNLI value for a nucleus is the lowest LI value measured for that nucleus, for example, the lowest gray value of the pixels within a specific defined nucleus. At this point, the cell death analysis module 62 may compare the MNLI values of particular cells to a range of predefined MNLI values indicative of viable cells (block 134). A value falling outside this range identifies the cell as being non-viable or dead, whereas a value falling within this range identifies the cell as being viable or alive. Alternatively, the cell death analysis module 62 may be carried out with populations of cells, as illustrated in FIG. 9B. In this instance, MNLI values for a plurality of defined nuclei are obtained (block 142) based upon their LI values (block 140) and the percentage of cells having MNLI values falling outside a specified range of MNLI values is calculated (block 144). This percentage is then compared with a predefined percentage range indicative of a viable cell population (block 146). Cell populations having percentages falling within the predefined range are reported as viable populations, whereas percentages falling outside the predefined range are reported as non-viable populations.
(§2) In one embodiment, the range of MNLI values indicative of viable cells may be calculated from control cell MNLI values using standard statistical analyses. For example, the MNLI values that bound a specified percentage or confidence interval, for example, 80%, 90%, 95% or a higher percentage, of the control cell MNLI values may be used as boundaries to defined the range of MNLI values indicative of viable cells. As this range is only exemplary, it will be appreciated that higher or lower percentages may be utilized. As a specified example, the MNLI values that bound 95% of the MNLI values using a standard statistical analysis yields good results. […] Once applied, the percentage of test cells falling within (or without) the range can be calculated to assess whether the cell population is viable or non-viable. […]
(§3) The coordinates of these DMSO-treated cells form a tight band of MNLI values. Based on a statistical analysis, 95% of the MNLI values measured from this population fall within a range of 481 to 560 intensity units (i.e., within a range of […] from the statistical mean MNLI value). […]

in vitro = settings: human
From the text: as §1, §2, §3

A549 cells [2] = assay: cell proliferation assay (nuclei count, cell proliferation analysis module); settings: Homo sapiens; taxol-treated A549 cells, nuclei count vs concentration, FIG. 5
From the text: The cell proliferation analysis module 58 provides information about the ability of cells to divide and proliferate. In general, the cell proliferation analysis module provides such information by counting the number of objects (typically nuclei) identified by the object identification module 57. In one embodiment, the cell proliferation analysis module […] can be used to screen for and/or identify candidate compounds having anti-proliferative activity. According to this embodiment, the proliferation of cells treated with or exposed to a candidate compound of interest can be monitored with the cell proliferation analysis module 58 of the invention. […] In a specific embodiment, samples of equal volume are collected from a cell culture as a function of time and analyzed for proliferation with the cell proliferation analysis module 58 of the invention. […]
In another specific embodiment, adherent cells may be treated with different concentrations of test compound, permitted to incubate for a specified period time and then analyzed with the cell proliferation analysis module 58. Plotting the average number of cells in each sample well as a function of compound concentration provides a curve from which the anti-proliferative IC50 (or EC50) can be determined. […]

| Compound | induction of cell death (MNLI analysis and visual inspection of images) (A549 cells [1]) | viability (in vitro) | EC50 (A549 cells [2]) |
| --- | --- | --- | --- |
| COc1cc([C@@H]2c3cc4c(cc3[C@@H](O[C@@H]3O[C@@H]5CO[C@@H](C)O[C@H]5[C@H](O)[C@H]3O)[C@H]3COC(=O)[C@H]23)OCO4)cc(OC)c1O [etoposide] | do not | 99.5% | – |
| CC(=O)O[C@H]1C(=O)[C@@]2(C)[C@H]([C@H](OC(=O)c3ccccc3)[C@]3(O)C[C@H](OC(=O)[C@H](O)[C@@H](NC(=O)c4ccccc4)c4ccccc4)C(C)=C1C3(C)C)[C@]1(OC(C)=O)CO[C@@H]1C[C@@H]2O [taxol] | induce cell death | 83% | 2.2 nM |
